Measurements: patent US11046680B1, “Heteroaryl-substituted triazoles as APJ receptor agonists” (priority 2016, dated 2021)

Target: human APJ receptor (Homo sapiens (Human), UniProt P35414)
Assay: biochemical
Format: biochemical
Details: [35S]GTPγS binding, CHO membranes expressing human APJ receptor; read-out: Activity hAPJ SPA EC50 IP
Description: The human APJ receptor was cloned by polymerase chain reaction and the gene encoding the receptor was subcloned in pFLAG-CMV™-3 expression vector (Sigma, Saint Louis, Mo. USA) in-house at Amgen. A GTPγS binding assay was performed on membranes prepared from CHO cells stably expressing human APJ receptor. The optimum experimental conditions for the concentrations of GDP, MgCl2, and NaCl in the assay buffer were initially determined. […] Incubation was at RT for 90 min and the microplate was read using a ViewLux™ ultra HTS Microplate Imager (PerkinElmer, Inc.).

Sequence of human APJ receptor (P35414 whole entry): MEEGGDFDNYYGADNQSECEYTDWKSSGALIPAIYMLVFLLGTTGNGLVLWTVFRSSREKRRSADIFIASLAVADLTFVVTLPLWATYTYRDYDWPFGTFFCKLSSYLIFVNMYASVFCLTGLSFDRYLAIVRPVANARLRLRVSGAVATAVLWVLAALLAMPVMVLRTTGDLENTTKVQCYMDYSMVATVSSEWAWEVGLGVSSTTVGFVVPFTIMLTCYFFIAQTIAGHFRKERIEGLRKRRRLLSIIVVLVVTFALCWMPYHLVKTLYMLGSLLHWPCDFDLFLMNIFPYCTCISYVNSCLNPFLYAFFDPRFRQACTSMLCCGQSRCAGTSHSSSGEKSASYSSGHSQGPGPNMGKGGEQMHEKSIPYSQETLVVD

Compound | EC50
COc1ccc(N2CCOCC2=O)cc1-n1c(NS(=O)(=O)CCc2ccc(Cl)cc2)nnc1-c1cccs1 [Example 127.0, 2-(4-Chlorophenyl)-N-(4-(2-methoxy-5-(3-oxo-4-morpholinyl)phenyl)-5-(2-thiophenyl)-4H-1,2,4-triazol-3-yl)ethanesulfonamide] | 300 nM
COc1cccc(OC)c1-n1c(NS(=O)(=O)[C@@H](C)[C@H](OC)c2ncc(C)cn2)nnc1-c1cc(C2CC2)on1 [Example 424.0, (1R,25)-N-(5-(5-cyclopropylisoxazol-3-yl)-4-(2,6-dimethoxyphenyl)-4H-1,2,4-triazol-3-yl)-1-methoxy-1-(5-methylpyrimidin-2-yl)propane-2-sulfonamide] | 21 nM
Cn1ccc(-c2nnc(NS(=O)(=O)[C@@H]3C[C@H](O)CN(c4ncc(F)cn4)C3)n2-c2c(F)cccc2F)n1 (single isomer, unassigned) [Example 299.0, (3R,5S)-N-(4-(2,6-difluorophenyl)-5-(1-methyl-1H-pyrazol-3-yl)-4H-1,2,4-triazol-3-yl)-1-(5-fluoro-2-pyrimidinyl)-5-hydroxy-3-piperidinesulfonamide or (3S,5R)-N-(4-(2,6-difluorophenyl)-5-(1-methyl-1H-pyrazol-3-yl)-4H-1,2,4-triazol-3-yl)-1-(5-fluoro-2-pyrimidinyl)-5-hydroxy-3-piperidinesulfonamide] | 520 nM
COc1cccc(OC)c1-n1c(NS(=O)(=O)[C@@H](C)[C@H](OC)c2ccc(C#N)cc2C#N)nnc1-c1ccn(C)n1 (mixture of isomers) [Example 264.0, (1S,2R)-1-(2,4-dicyanophenyl)-N-(4-(2,6-dimethoxyphenyl)-5-(1-methyl-1H-pyrazol-3-yl)-4H-1,2,4-triazol-3-yl)-1-methoxy-2-propanesulfonamide and (1R,2S)-1-(2,4-dicyanophenyl)-N-(4-(2,6-dimethoxyphenyl)-5-(1-methyl-1H-pyrazol-3-yl)-4H-1,2,4-triazol-3-yl)-1-methoxy-2-propanesulfonamide] | 0.8 nM
COc1cccc(OC)c1-n1c(NS(=O)(=O)[C@@H](C)[C@H](OC)c2ncc(C)cn2)nnc1-c1c(C)nc2ccccn12 [Example 410.0, (1R,25)-N-(4-(2,6-dimethoxyphenyl)-5-(2-methylimidazo[1,2-a]pyridin-3-yl)-4H-1,2,4-triazol-3-yl)-1-methoxy-1-(5-methylpyrimidin-2-yl)propane-2-sulfonamide] | 940 nM
(2S)-N-(4-(2,6-dimethoxyphenyl)-5-(6-methoxy-2-pyrazinyl)-4H-1,2,4-triazol-3-yl)-1-(5-fluoro-2-pyrimidinyl)-2-propanesulfonamide and (2R)-N-(4-(2,6-dimethoxyphenyl)-5-(6-methoxy-2-pyrazinyl)-4H-1,2,4-triazol-3-yl)-1-(5-fluoro-2-pyrimidinyl)-2-propanesulfonamide [Example 177.0] | 4.5 nM
COc1ccc(N2CCC2=O)cc1-n1c(NS(=O)(=O)CCc2ccc(Cl)cc2)nnc1-c1cccs1 [Example 126.0, 2-(4-Chlorophenyl)-N-(4-(2-methoxy-5-(2-oxo-1-azetidinyl)phenyl)-5-(2-thiophenyl)-4H-1,2,4-triazol-3-yl)ethanesulfonamide] | 11 nM
CCc1csc(-c2nnc(NS(=O)(=O)[C@H](C)Cc3ncc(F)cn3)n2-c2c(OC)cccc2OC)n1 [Example 106.0] | 21 nM
COc1cccc(OC)c1-n1c(NS(=O)(=O)[C@@H](C)[C@H](OC)c2ncc(C)cn2)nnc1-c1nc(C2CC2)cs1 [Example 340.0, (1R,2S)-N-(5-(4-cyclopropyl-1,3-thiazol-2-yl)-4-(2,6-dimethoxyphenyl)-4H-1,2,4-triazol-3-yl)-1-methoxy-1-(5-methyl-2-pyrimidinyl)-2-propanesulfonamide] | 0.26 nM
COc1cccc(OC)c1-n1c(NS(=O)(=O)[C@@H](C)[C@H](OC)c2ncc(Cl)cn2)nnc1-c1cc2n(n1)CCC2 [Example 210.0, (1R,2S)-1-(5-chloro-2-pyrimidinyl)-N-(5-(5,6-dihydro-4H-pyrrolo[1,2-b]pyrazol-2-yl)-4-(2,6-dimethoxyphenyl)-4H-1,2,4-triazol-3-yl)-1-methoxy-2-propanesulfonamide] | 0.83 nM
CC(C)O[C@@H](c1ncc(Cl)cn1)[C@H](C)S(=O)(=O)Nc1nnc(-c2ccn(C)n2)n1C1(C)CC1 [Example 538.0, (1S,2S)-1-(5-chloro-2-pyrimidinyl)-N-(4-(1-methylcyclopropyl)-5-(1-methyl-1H-pyrazol-3-yl)-4H-1,2,4-triazol-3-yl)-1-(2-propanyloxy)-2-propanesulfonamide] | 20 nM
COc1cccc(OC)c1-n1c(NS(=O)(=O)CCc2ccc(Cl)cc2)nnc1-c1ncco1 [Example 92.0, 2-(4-chlorophenyl)-N-(4-(2,6-dimethoxyphenyl)-5-(oxazol-2-yl)-4H-1,2,4-triazol-3-yl)ethanesulfonamide] | 71 nM
COc1cccc(OC)c1-n1c(NS(=O)(=O)CCC(=O)N2CCCC2)nnc1-c1cccs1 [Example 361.0, N-(4-(2,6-Dimethoxyphenyl)-5-(thiophen-2-yl)-4H-1,2,4-triazol-3-yl)-3-oxo-3-(pyrrolidin-1-yl)propane-1-sulfonamide] | 34 nM
(2S)-N-(4-(2,6-dimethoxyphenyl)-5-(2-pyrazinyl)-4H-1,2,4-triazol-3-yl)-1-(5-fluoro-2-pyrimidinyl)-2-propanesulfonamide and (2R)-N-(4-(2,6-dimethoxyphenyl)-5-(2-pyrazinyl)-4H-1,2,4-triazol-3-yl)-1-(5-fluoro-2-pyrimidinyl)-2-propanesulfonamide [Example 182.0] | 84 nM
COc1cccc(OC)c1-n1c(NS(=O)(=O)[C@H](C)Cc2ncc(F)cn2)nnc1-c1nc(C2CC2)cs1 (single isomer, unassigned) [Example 160.0, (R)-N-(5-(4-cyclopropylthiazol-2-yl)-4-(2,6-dimethoxyphenyl)-4H-1,2,4-triazol-3-yl)-1-(5-fluoropyrimidin-2-yl)propane-2-sulfonamide or (S)-N-(5-(4-cyclopropylthiazol-2-yl)-4-(2,6-dimethoxyphenyl)-4H-1,2,4-triazol-3-yl)-1-(5-fluoropyrimidin-2-yl)propane-2-sulfonamide] | 2 nM
COc1ccc(C#N)cc1-n1c(NS(=O)(=O)CCc2ccc(Cl)cc2)nnc1-c1cccs1 [Example 247.0, 2-(4-chlorophenyl)-N-(4-(5-cyano-2-methoxyphenyl)-5-(thiophen-2-yl)-4H-1,2,4-triazol-3-yl)ethanesulfonamide] | 166 nM
(R)-N-(4-(2,6-dimethoxyphenyl)-5-(1,5-dimethyl-1H-pyrazol-3-yl)-4H-1,2,4-triazol-3-yl)-1-(5-fluoropyrimidin-2-yl)propane-2-sulfonamide and (S)-N-(4-(2,6-dimethoxyphenyl)-5-(1,5-dimethyl-1H-pyrazol-3-yl)-4H-1,2,4-triazol-3-yl)-1-(5-fluoropyrimidin-2-yl)propane-2-sulfonamide [Example 46.0] | 31 nM
COc1cccc(OC)c1-n1c(NS(=O)(=O)[C@@H](C)[C@H](C)c2ncc(C)cn2)nnc1-c1ccn(C)n1 [Example 201.0, (2S,3R)-N-(4-(2,6-dimethoxyphenyl)-5-(1-methyl-1H-pyrazol-3-yl)-4H-1,2,4-triazol-3-yl)-3-(5-methyl-2-pyrimidinyl)-2-butanesulfonamide] | 0.93 nM
COc1cnc([C@@H](C)[C@H](C)S(=O)(=O)Nc2nnc(-c3ccn(C)n3)n2-c2c(OC)cccc2OC)cn1 [Example 287.0, (2S,3R)-N-(4-(2,6-dimethoxyphenyl)-5-(1-methyl-1H-pyrazol-3-yl)-4H-1,2,4-triazol-3-yl)-3-(5-methoxy-2-pyrazinyl)-2-butanesulfonamide] | 0.42 nM
COc1cccc(OC)c1-n1c(NS(=O)(=O)CCc2ccc(Cl)cc2)nnc1-c1nc(C)cs1 [Example 142.0, 2-(4-chlorophenyl)-N-(4-(2,6-dimethoxyphenyl)-5-(4-methylthiazol-2-yl)-4H-1,2,4-triazol-3-yl)ethanesulfonamide] | 17 nM
COc1cccc(OC)c1-n1c(NS(=O)(=O)[C@@H](C)[C@H](C)c2ncc(Cl)cn2)nnc1-c1cc2n(n1)CCC2 [Example 221.0, (2S,3R)-3-(5-chloro-2-pyrimidinyl)-N-(5-(5,6-dihydro-4H-pyrrolo[1,2-b]pyrazol-2-yl)-4-(2,6-dimethoxyphenyl)-4H-1,2,4-triazol-3-yl)-2-butanesulfonamide] | 0.32 nM
COc1cccc(OC)c1-n1c(NS(=O)(=O)[C@@H](C)[C@H](OC)c2ncc(F)cn2)nnc1-c1cc(C)[nH]n1 [Example 345.0, (1R,2S)-N-(4-(2,6-dimethoxyphenyl)-5-(5-methyl-1H-pyrazol-3-yl)-4H-1,2,4-triazol-3-yl)-1-(5-fluoro-2-pyrimidinyl)-1-methoxy-2-propanesulfonamide] | 8.1 nM
COc1cccc(OC)c1-n1c(NS(=O)(=O)[C@@H](C)[C@H](OC)c2ncc(C)cn2)nnc1-c1noc2ccc(Br)cc12 [Example 414.0] | 210 nM
COc1cccc(OC)c1-n1c(NS(=O)(=O)CCc2ccc(F)cc2C#N)nnc1-c1nc(C2CC2)cs1 [Example 155.0, 2-(2-cyano-4-fluorophenyl)-N-(5-(4-cyclopropylthiazol-2-yl)-4-(2,6-dimethoxyphenyl)-4H-1,2,4-triazol-3-yl)ethanesulfonamide] | 10 nM
(2R,3S)-N-(4-(2,6-dimethoxyphenyl)-5-(1-methyl-1H-pyrazol-3-yl)-4H-1,2,4-triazol-3-yl)-3-(5-methyl-1-oxido-2-pyrazinyl)-2-butanesulfonamide and (2S,3R)-N-(4-(2,6-dimethoxyphenyl)-5-(1-methyl-1H-pyrazol-3-yl)-4H-1,2,4-triazol-3-yl)-3-(5-methyl-1-oxido-2-pyrazinyl)-2-butanesulfonamide [Example 280.0] | 3.5 nM
